Data on two compounds can be found in patent US20200247808A1, “Heterocyclic Tec-Family Kinase Inhibitors” (GB005, Inc., priority 2015, published 2020).

Entries after “also recorded” stand apart in the source; their conditions may differ.

One test relates to splenocytes. The test is described as follows: Splenic cell proliferation assay (anti-IgM stimulated, Cell Titer-Glo). Format: cell-based, mouse (CD1). Conditions: Splenocyte; mouse splenocytes, 2.5 μg/ml anti-IgM F(ab')2, 72 h; read-out: Spleen cell EC50. The protocol:
Proliferation of splenocytes in response to anti-IgM can be blocked by inhibition of BTK. Splenocytes were obtained from 6 week old male CD1 mice (Charles River Laboratories Inc.). Mouse spleens were manually disrupted in PBS and filtered using a 70um cell strainer followed by ammonium chloride red blood cell lysis. Cells were washed, resuspended in Splenocyte Medium (HyClone RPMI supplemented with 10% heat-inactivated FBS, 0.5X non-essential amino acids, 10 mM HEPES, 50 μM beta mercaptoethanol) and incubated at 37° C., 5% CO2 for 2h to remove adherent cells. Suspension cells were seeded in 96 well plates at 50,000 cells per well and incubated at 37° C., 5% CO2 for 1h. Splenocytes were pre-treated in triplicate with 10,000 nM curves of Formula 1 compounds for 1h, followed by stimulation of cell proliferation with 2.5 μg/ml anti-IgM
F(ab′)2 (Jackson ImmunoResearch) for 72 h. Cell proliferation was measured by Cell Titer-Glo Luminescent Assay (Promega). EC50 values (50% proliferation in the presence of compound as compared to vehicle treated controls) were calculated from dose response compound curves using GraphPad Prism Software.

Test [1] concerns TMD-8 human activated B cell diffuse large B cell lymphoma cells. Description: TMD-8 survival assay (Cell Titer-Glo). Format: cell-based. Conditions: TMD8, TMD-8 cells, 72 h. The protocol: TMD-8 human activated B cell diffuse large B cell lymphoma cells were seeded in 96-well plates at a density of 20,000 cells/well in HyClone RPMI supplemented with 10% FBS (Fisher)/1% Penicillin/Streptomycin (HyClone) and incubated at 37° C., 5% CO2. Cells were treated in triplicate with 1,000 nM or 100 nM curves of compounds for 72h. Cell survival was measured by Cell Titer-Glo Luminescent Assay (Promega). EC50 values (50% proliferation in the presence of compound as compared to vehicle treated controls) were calculated from dose response compound curves using GraphPad Prism Software.

The subject of test [2] is immune complex mediated vasculitis. The test is described as follows: Mouse Arthus (immune complex mediated acute vasculitis). Format: in vivo, mouse (Balb/c). As to conditions: mice; for Suppression of immune complex mediated vasculitis: oral gavage 10 mg/kg, 1 h pre-treatment, Evan's blue extravasation at 4 h. The protocol:
Formation and reaction to immune complexes is characteristic of antibody mediated autoimmune and inflammatory disease. BTK is important in signaling pathways downstream of Fc receptor stimulation which can be modeled by immune complex mediated acute vasculitis. Mouse studies were conducted as reported in Braselmann S, et al. J Pharmacol Exp Ther, 2006, 319:998-1008.
In summary, female Balb/c mice (6-7 weeks on arrival) were habituated to the animal facility for at least 4 days. On the day of the experiment, animals were pre-treated (t=minus 1 h) with compound or vehicle alone by gavage (PO). At t=0, animals were injected intravenously (IV; 0.1 mL/mouse) with saline containing chicken ovalbumin and Evan's blue (10 mg/mL of each). Ten minutes later (t=10 min), animals were anesthesized with isoflurane, the dorsal surface was shaved and rabbit anti-chicken ovalbumin antibody was then injected intradermally at one site on the right side of the animal (25 μg in 30 μL). The same amount of isotype control antibody was then injected on the left side.
The animals were then returned to their home cage and skin punches (8 mm) were collected from each injection site four hours later. The samples were placed in 1 mL formamide overnight at 80° C. (1 skin biopsy per 1 mL formamide in a glass tube). The amount of Evan's blue in the formamide solution was then assessed by spectrophotometry (630 nm) as a measure of serum extravasation into the dermis.

Test [3] concerns collagen-induced arthritis. Description: Mouse CIA (collagen-induced arthritis) model. It is filed as in vivo, mouse (B10RIII). Conditions: mice, oral gavage 10 and 30 mg/kg, BID, to RA day 12. The protocol:
Mouse CIA model was performed using the methods described by Trentham D E, Townes A S, Kang A H. Autoimmunity to Type II Collagen: An Experimental Model of Arthritis. J Exp Med 1977; 857-868, and Bendele A M. Animal Models of Rheumatoid Arthritis. J Musculoskel Interact 2001; 377-385.
[…]. On experimental day 0 mice were anaesthetized with isoflurane and the dorsal surface was shaved. Collagen, emulsified in Freund's complete adjuvant (CFA) supplemented with additional mycobacterium tuberculosis (TB) H37Ra, was injected intradermally at the base of the tail (0.15 mL / animal; 2 mg/mL collagen and 2.5 mg/mL TB in CFA). This CFA treatment was repeated on day 15.
From day 15 to the end of the study animals were scored daily for signs of arthritis. On the first day of disease (RA Day 1) animals were recruited to the study and grouped using a balanced design based on arthritis score. Once recruited, animals were weighed and dosed twice daily by gavage (PO, BID). Recruited animals were then scored twice a week on RA days 1, 5, 8 and 12.
At the end of the study (RA day 12) animals were weighed and scored.

Test [4] concerns TMD-8 xenograft B-cell lymphoma. Description: Antitumor activity study, TMD-8 xenograft. Conditions: Scid mice, once daily oral gavage from d21. Format: in vivo, mouse (Scid). The protocol: Female C.B-17/IcrHsd-PrkdcsidLystbg-J mice (Scid mice; Harlan, 6-8 wk on delivery) were used for these studies. The mice were housed 4 per cage in a ventilated rack in a room under controlled conditions of temperature (20-25° C.) and humidity (40-70%), with a 12 h dark/light cycle. The animals were fed ad libitum with irradiated rodent diet (Harlan) and received autoclaved tap water. The cage, bedding and enrichment materials inside the home cage were autoclaved prior to use and all cage and animal manipulations were carried out inside a sterile laminar flow hood. Animals were acclimated for 1 week prior to cell injection.
TMD-8 human activated B cell diffuse large B cell lymphoma cells were grown in HyClone RPMI supplemented with 10% FBS (Fisher)/1% Penicillin/Streptomycin (HyClone) at 37° C., 5% CO2 and then prepared for injection. […]
When the mean tumor volume reached 200-300 mm^3 (d21) mice were randomized into groups of 10 based on tumor size and treatment was initiated. […] General condition and BW of all mice was assessed daily and tumor measurements collected twice per week (Mon and Thur). […]
The long (a) and short (b) axis of tumors were measured with electronic calipers (Mitutoyo) and tumor volume (mm^3) was calculated (a*b^2/2) and temporal changes in tumor volume and body weight were assessed day 21 (d21) to […].

The next test concerns the target EGFR (Homo sapiens, UniProt P00533). The test is described as follows: Inhibition of cellular EGFR (EGF-stimulated EGFR autophosphorylation in MDA-468 cells). It is filed as cell-based. More on the design: MDA-468 human breast tumor cells which express functional EGFR; endogenous in cells; host or cells: MDA-468 human breast tumor cells. Conditions: 1 h pretreatment, 10 ng/mL EGF 5 min, phospho-EGFR/EGFR ratio.

Sequence of EGFR (P00533 25-1210): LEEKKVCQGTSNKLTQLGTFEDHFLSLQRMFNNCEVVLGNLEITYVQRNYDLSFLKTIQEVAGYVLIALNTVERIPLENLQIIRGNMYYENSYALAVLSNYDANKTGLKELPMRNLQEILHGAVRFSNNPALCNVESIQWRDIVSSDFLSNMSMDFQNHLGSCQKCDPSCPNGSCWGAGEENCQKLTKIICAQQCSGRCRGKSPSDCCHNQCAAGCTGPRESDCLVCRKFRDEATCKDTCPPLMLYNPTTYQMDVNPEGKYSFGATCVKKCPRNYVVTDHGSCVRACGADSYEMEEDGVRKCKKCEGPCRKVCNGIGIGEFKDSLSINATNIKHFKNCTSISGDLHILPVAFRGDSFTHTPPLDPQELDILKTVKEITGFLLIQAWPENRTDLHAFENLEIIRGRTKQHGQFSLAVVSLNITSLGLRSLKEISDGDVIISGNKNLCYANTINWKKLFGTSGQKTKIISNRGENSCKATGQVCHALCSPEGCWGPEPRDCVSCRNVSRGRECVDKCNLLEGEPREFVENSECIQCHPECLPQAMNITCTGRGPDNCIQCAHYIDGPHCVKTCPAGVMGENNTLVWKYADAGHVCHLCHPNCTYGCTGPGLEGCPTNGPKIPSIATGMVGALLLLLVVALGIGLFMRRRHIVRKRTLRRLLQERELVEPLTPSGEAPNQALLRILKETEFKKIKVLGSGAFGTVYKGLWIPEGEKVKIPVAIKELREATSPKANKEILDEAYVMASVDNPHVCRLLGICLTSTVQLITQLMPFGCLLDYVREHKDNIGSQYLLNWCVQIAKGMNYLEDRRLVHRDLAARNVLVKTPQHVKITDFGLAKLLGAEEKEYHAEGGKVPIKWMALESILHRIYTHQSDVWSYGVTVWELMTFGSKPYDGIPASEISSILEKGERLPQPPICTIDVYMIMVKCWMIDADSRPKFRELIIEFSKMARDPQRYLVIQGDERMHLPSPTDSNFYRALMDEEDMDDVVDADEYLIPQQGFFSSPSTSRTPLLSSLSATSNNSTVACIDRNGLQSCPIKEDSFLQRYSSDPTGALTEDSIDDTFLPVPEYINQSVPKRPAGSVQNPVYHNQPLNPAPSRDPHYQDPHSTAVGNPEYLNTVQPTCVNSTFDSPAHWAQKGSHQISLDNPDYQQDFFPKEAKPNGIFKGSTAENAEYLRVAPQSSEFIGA
Description for EGFR: Cells were plated at a densitity of 400 000 cells/well in 6×12-well plates in a final volume of 1 ml/well in DMEM high glucose+10% FBS +1% Pen/Strep and cultured at 37 C and 5% CO2 overnight. The following day the media was replaced with serum free media and the cells were cultured for a further 24 hours.
Cells were pretreated with compound for 1 hour and then stimulated with 10 ng/mL EGF for 5 minutes. Media was removed and cells were lysed in 100 uL/well of RIPA buffer+1% Protease Inhibitor cocktail+1% Phosphatase inhibitor cocktail. Protein concentrations were determined by
BCA assay. 25μ of cellular protein from each cell treatment was separated by SDS-PAGE. Proteins were transferred to nitrocellulose membranes and blocked with TBS-T+5% non-fat milk. EGFR and phospho-EGFR were detected following incubation overnight at 4° C. with Rabbit anti-phospho-EGFR (Tyr1068) (Cell signaling) diluted 1/1000 and Mouse anti-EGFR (1F4) (Cell signaling) diluted 1/1000 in TBS-T+5% nonfat dry milk and then incubation for 1 h at RT with IR Dye 800CW goat anti-rabbit diluted 1/15000 and with IR Dye 680RD goat anti-mouse diluted 1/15000 in TBS-T+5% nonfat dry milk+0.01% SDS. Antibody binding was quatified using a Li-cor Odyssey CLx. Phospho-EGFR/EGFR ratios were calculated for each test condition of control and test article and the EC50 of inhibiton of EGF-stimulated EGFR phosphorylation was calculated.

As for `CC#CC(=O)N[C@H]1C[C@@H](n2nc(-c3ccc(Oc4ccccc4)cc3)c3c(N)ncnc32)C1` [Compound 1], the EC50 in the test on splenocytes is 0.2 nM; in test [1], 1 nM; on EGFR, 5960 nM. For the same compound, the “Effect on immune complex-mediated vasculitis (FIG. 3, in words)” value in test [2] is on record as “inhibit immune complex-mediated vasculitis”. In test [2], the “Suppression of immune complex mediated vasculitis” value was 87%. In addition, the “Effect on arthritis in mouse CIA model” value in test [3] is given as “prevented the progression of arthritis; also recorded: effective in the mouse collagen-induced arthritis model”. Besides, the “Effect on TMD-8 xenograft tumor growth” value in test [4] was “reduce growth of TMD-8 xenograft B-cell lymphoma; also recorded: reduce tumor growth”.

As to `C=CC(=O)N[C@H]1C[C@@H](n2nc(-c3ccc(Oc4ccccc4)cc3)c3c(N)ncnc32)C1` [Compound 2], the figures for the EC50 (in the test with splenocytes; in test [1]; on EGFR) were 0.3 nM, 1.9 nM and 376 nM, respectively. Moreover, the “Effect on immune complex-mediated vasculitis (FIG. 3, in words)” value in test [2] is recorded as “inhibit immune complex-mediated vasculitis”. For the same compound, the “Suppression of immune complex mediated vasculitis” value in test [2] stood at 94%. In test [3], the “Effect on arthritis in mouse CIA model” value is given as “prevented the progression of arthritis; also recorded: effective in the mouse collagen-induced arthritis model”. In addition, the “Effect on TMD-8 xenograft tumor growth” value in test [4] is recorded as “reduce growth of TMD-8 xenograft B-cell lymphoma; also recorded: reduce tumor growth”.
